What was measured:
[1] = test system: retinol dehydrogenases; assay: direct assay of retinol dehydrogenases present in the RPE; format: biochemical; conditions: direct assays
[2] = test system: retinyl acetate hydrolase; assay: direct assay of retinyl acetate hydrolase present in the RPE; format: biochemical; conditions: direct assays
[3] = target: T1, CYP26A1 (Homo sapiens, UniProt O43174); assay: oxidation in HEK-293 cells transfected with CYP26A1 cDNA; format: in vitro ADME
T1 construct: expressed in transfected cells; host or cells: HEK-293
T1 sequence (O43174 1-497): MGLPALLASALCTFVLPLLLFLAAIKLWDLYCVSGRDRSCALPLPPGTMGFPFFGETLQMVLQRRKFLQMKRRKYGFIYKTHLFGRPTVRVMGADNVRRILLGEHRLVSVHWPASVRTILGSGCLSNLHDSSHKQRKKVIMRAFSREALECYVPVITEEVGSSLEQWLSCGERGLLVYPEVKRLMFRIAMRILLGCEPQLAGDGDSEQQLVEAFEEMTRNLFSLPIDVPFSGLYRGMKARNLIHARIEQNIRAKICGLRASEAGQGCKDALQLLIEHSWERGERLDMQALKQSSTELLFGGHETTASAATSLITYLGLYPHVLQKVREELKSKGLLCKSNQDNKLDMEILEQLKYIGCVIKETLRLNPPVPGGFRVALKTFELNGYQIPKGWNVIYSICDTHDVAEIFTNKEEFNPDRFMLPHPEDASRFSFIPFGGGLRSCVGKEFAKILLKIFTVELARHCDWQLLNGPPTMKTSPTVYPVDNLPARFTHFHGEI
Excerpt: Next, the RA oxidation pathway was investigated. […] In addition to secretion, Ret-NH2 might be degraded first by deamination to all-trans-retinol/retinal, which was seen to increase in Ret-NH2 treated cells. […] These observations explain the long-lasting effect of RetNH2, as the amide is stored and hydrolyzed back to the free amine.

[4] = target: T2, LRAT (Bos taurus, UniProt Q9BGL2); assay: LRAT reaction: formation of all-trans-retinyl esters by RPE microsomes; format: biochemical, bovine; conditions: all-trans-retinol substrate
T2 construct: Purified RPE microsomes were the source of the enzymes; from tissue; host or cells: bovine retinal pigment epithelium microsomes
T2 sequence (Q9BGL2 1-230): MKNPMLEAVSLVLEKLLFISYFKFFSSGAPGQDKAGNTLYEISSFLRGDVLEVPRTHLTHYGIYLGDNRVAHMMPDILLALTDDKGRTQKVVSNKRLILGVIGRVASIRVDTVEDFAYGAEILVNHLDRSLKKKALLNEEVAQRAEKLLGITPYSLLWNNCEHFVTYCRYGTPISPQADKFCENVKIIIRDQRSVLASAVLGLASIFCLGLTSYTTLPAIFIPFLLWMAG
Protocol: To test if 11-cis-retinylamine (11-cis Ret-NH2) affects isomerization and esterification, an in vitro assay was employed. In this assay both of the all-trans-retinyl esters formed in the reaction catalyzed by LRAT and 11-cis-retinol production by isomerase were measured (6). Purified RPE microsomes were the source of the enzymes, and all-trans-retinol was the substrate. […] Inhibition of isomerization by Ret-NH2 is not due to binding of CRALBP or competition with 11-cis-retinol for binding to CRALBP. […] An increased concentration of all-trans-retinol lowered the level of inhibition, as illustrated in FIG. 2B. […] Dixon's and Lineweaver-Burk plots in the standard assay conditions yielded Ki=0.1 μM for Ret-NH2 when all-trans-retinol (KM=0.3 μM) was assumed to be a substrate. […] This estimated value reflects the very potent nature of the inhibition by 11-cis-Ret-NH2.
Materials—Fresh bovine eyes were obtained from a local slaughterhouse (Schenk Packing Co., Inc., Stanwood, Wash.). Preparation of bovine RPE microsomes was performed according to previously described methods (Stecher et al., J Biol Chem 274:8577-85, 1999). […]
Reaction conditions for isomerase and LRAT reaction—The isomerase reaction was performed essentially as described previously (Stecher et al., J Biol Chem 274:8577-85, 1999). […] The average values were used and the standard deviations were calculated.

[5] = test system: RAR; assay: F9-RARE-lacZ reporter cell line, β-galactosidase activity (DR5 elements); format: cell-based; conditions: 24 hours treatment, micromolar concentrations
Excerpt: 13-cis-RA can isomerize to all-trans-RA and then to 9-cis-RA, both of which are potent ligands of the RA receptor (RAR). 9-cis-RA also binds and activates the retinoid X receptor (RXR). This contributes to the toxicity of the RAR and RXR ligands. It was investigated whether Ret-NH2 can activate these nuclear receptor using reporter-cells as described previously (20). A β-galactosidase activity assay was employed to examine if all-trans-RA, 9-cis-RA, and Ret-NH2 are agonists for these nuclear receptors.
F9-RARE-lacZ cells express endogenous RAR and RXR and were transfected with a construct of lacZ under the control of a minimal promoter and upstream DR5 elements (1). F9-RARE-lacZ cells were treated with different doses of all-trans-RA or Ret-NH2 for 24 hours after which the cells were harvested and the β-galactosidase activity was measured using the soluble substrate o-nitrophenyl β-D-galactopyranoside. The colorless substrate was cleaved by β-galactosidase to yellow colored o-nitrophenol, whose absorbance was measured at 420 nm using a spectrophotometer. The experiment was repeated twice with similar results. The RARE reporter cell line F9-RARE-lacZ (SIL15-RA) was a kind gift from Dr. Michael Wagner (SUNY Downstate Medical Center) and Dr. Peter McCaffery (University of Massachusetts Medical School). […]

## CC1=C(/C=C/C(C)=C/C=C/C(C)=C/CN)C(C)(C)CCC1 [Ret-NH2, Retinylamine]
[1]
  inhibition of retinol dehydrogenases: did not inhibited
[2]
  inhibition of retinyl acetate hydrolase: did not inhibited
[3]
  oxidation by CYP26A1: no evidence of the presence of hydroxy- or oxo-Ret-NH2
[4]
  formation of all-trans-retinyl esters (LRAT activity): does not inhibit

## CC1=C(/C=C/C(C)=C/C=C/C(C)=C/CN)C(C)(C)CCC1 [all-trans-Ret-NH2, all-trans-retinylamine]
[5]
  activation of transcription through RAR (DR5 RARE): does not activate protein transcription
